From patent US10377741B2, “Substituted heteroaryl aldehyde compounds and methods for their use in increasing tissue oxygenation” (Global Blood Therapeutics, Inc., priority 2011, dated 2019)

How the values were obtained:
[1] = target: T1, purified Hemoglobin S (HbS) (Homo sapiens, UniProt P68871+P69905, E7V); test: Modulation of hemoglobin oxygen affinity: oxygen equilibrium curves (HEMOX) in purified HbS; type: biochemical, human (homozygous sickle cell patients); conditions: compound at 30 μM; 25 μM purified HbS, 45 min at 37° C.
T1 construct: HbS was purified by a modified procedure; from tissue; host or cells: blood of homozygous sickle cell patients (CHORI); for the polymerization assay purified by the CRO VIRUSYS
In short: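 HbS from homozygous sickle cell patient blood, 25 μM in HEMOX buffer pH 7.4, incubated 45 min at 37° C with compound (30 μM unless noted). Air-saturated then deoxygenated with N2; p50 from Hill fit; delta p50% = (control p50 − treated p50)/control p50 × 100.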

purified HBS = target: T2, purified HBS (Homo sapiens, UniProt P68871+P69905, E7V); test: Polymerization assay (delay time of HbS polymerization); type: biochemical, human (homozygous sickle cell patients); conditions: percent delay (% DT) vs HBS alone; 50 μM purified HBS, 1.8 M potassium phosphate pH 7.4
T2 construct: HbS was purified by a modified procedure; from tissue; host or cells: blood of homozygous sickle cell patients (CHORI); for the polymerization assay purified by the CRO VIRUSYS
Description: Polymerization assays are carried out in vitro using purified HBS exchanged into 1.8 M potassium phosphate buffer at pH 7.4. Using a slightly modified protocol (Antonini and Brunori, 1971), HbS is purified by the CRO VIRUSYS, from blood obtained from homozygous sickle cell patients through the Hemoglobinopathy Center at Children's Hospital Oakland Research Institute (CHORI) with Institutional Review Board approval. Compounds are prepared in 100% DMSO and a desired amount is added to 50 μM of purified HBS at a final DMSO concentration of 0.3%. Final potassium phosphate concentration is adjusted to 1.8 M using a combination of 2.5 M potassium phosphate stock solution and water at pH 7.4. The reaction mixture is incubated for an hour at 37° C. and then transferred into a 24-well plate for deoxygenation in a glove box containing 99.5% nitrogen and 0.5% oxygen. The 24-well plate is not covered and incubated at 4° C. on a plate cooler inside the glove box for one and a half hours. Fifty μL of the reaction mixture is transferred into a 96-well plate and the absorbance at 700 nm is measured every minute for one hour at 37° C. in a plate reader located inside the glove box. A plot of the absorbance against time is fitted using a Boltzman sigmoidal fit and the delay time (from zero to time at half Vmax) is measured. To compare and rank compounds, delay times are expressed as percent delay (% DT), which is defined as the difference in delay times for HBS/compound and HBS alone multiplied by 100 and divided by the delay time for HBS alone.
Compounds listed below have been tested in the polymerization assay. Activity ranges are defined by the number of dagger (†) symbols indicated. † denotes activity ≥40% but ≤80%; †† denotes activity >80% but ≤120%; ††† denotes activity >120% but ≤140%; †††† denotes activity >160%.

HbS/A = target: T3, HbS/A (Homo sapiens, UniProt P68871+P69905, E7V); test: R/T assay (relaxed-to-tense transition under deoxygenated conditions); type: biochemical, human (homozygous sickle cell patients); conditions: 3 μM HbS/A, % R remaining vs no treatment
T3 construct: A mixture of HbS/A was purified from blood; from tissue; host or cells: blood of homozygous sickle cell patients (CHORI)
Description: A relaxed-to-tense transition assay (“R/T assay”) was used to determine the ability of substituted benzaldehyde compounds to maintain the high-oxygen affinity relaxed (R) state of hemoglobin under deoxygenated conditions. This ability can be expressed as a “delta R” value (i.e., the change in the time-period of the R state after hemoglobin is treated with a compound, as compared to the period without treatment with the compound). Delta R is the % R to remaining after the compounds treatment compared with no treatment (e.g. if R % without treatment is 8% while with treatment with a target compound is 48% R at 30 μM, then % R is 40% for that compound.
A mixture of HbS/A was purified from blood obtained from homozygous sickle cell patients though the Hemoglobinopathy Center at Children's Hospital Oakland Research Institute (CHORI) with Institutional Review Board approval. HbS/A (at a final concentration of 3 μM) was incubated for 1 hr at 37° C. in presence or absence of compounds in […] potassium phosphate buffer, pH=7.4 and 30 μM 2, 3 diphosphoglycerate (DPG) in 96 well plates in a final volume of 160 μl. Compounds were added at different concentrations (3 μM to 100 μM final concentrations). Plates were covered with a Mylar film. After incubation was completed the Mylar cover was removed and the plates were placed in a Spectrostar Nano plate reader previously heated at 37° C. Five minutes later, N2 (flow rate=20 L/min) was flowed through the spectrophotometer. Spectroscopic measurements (300 nm to 700 nm) were taken every 5 min for 2 hours. Data analysis was performed by using linear regression from the data retrieved for all wavelengths.
Table 4 below lists the delta R values where + indicates a delta R of between 0 and 30, ++ indicates a delta R of between 30 and 50, and +++ indicates a delta R of 50 or greater. Unless noted otherwise, the compounds in Table 2 were tested at 30 μM.

whole blood = test: Whole blood assay: oxygen equilibrium curves of whole blood; type: cell-based, human (homozygous sickle cell patients); conditions: compound at 1000 μM; hematocrit 20%, 1 hour at 37° C.
Description: Oxygen Equilibrium Curves (OEC) of whole blood before and after treatment with different concentrations of substituted benzaldehyde compounds were performed as follows using a HEMOX analyzer (TCS Scientific, New Hope, Pa.). Blood samples from homozygous sickle cell patients were obtained though the Hemoglobinopathy Center at Children's Hospital Oakland Research Institute (CHORI) with Institutional Review Board approval. The hematocrit was adjusted to 20% using autologous plasma and the blood samples were incubated for 1 hour at 37° C. in absence or presence of compounds. 100 μl of these samples were added to 5 mL of Hemox buffer (30 mM TES, 130 mM NaCl, 5 mM KCl, pH=7.4) at 37° C. and then transferred to the Hemox sample chamber. The samples were saturated with oxygen by flushing with compressed air for 10 minutes. The samples were then flushed with pure nitrogen and the respective absorbances of oxy- and deoxy-Hb are recorded as a function of the solution pO2. The oxygen equilibrium data were then fitted to the Hill Model to obtain values for p50. The deoxygenation curves for both whole blood alone (control) and whole blood in the presence of the compound were collected with the TCS software.
Table 5 below lists the delta p50% values where + indicates a delta p50% of between 0 and 29, ++ indicates a delta p50% of between 30 and 50, and +++ indicates a delta p50% of 50 or greater. Unless noted otherwise, the compounds in Table 2 were tested at 1000 μM.

| delta p50% [1] | % delta Delay (purified HBS) | delta R (HbS/A; compound at 30 μM) | delta R (HbS/A; compound at 9 μM) | Structure (SMILES) | delta p50% Values for Whole Blood Assay (whole blood) |
| --- | --- | --- | --- | --- | --- |
| ++ (a delta p50% of between 30 and 50) | † (activity ≥40% but ≤80%) | ++ (a delta R of between 30 and 50) | – | COc1cc(C=O)c(OCc2cccn3ccnc23)cn1 [Compound 5] | + (a delta p50% of between 0 and 29) |
| ++ (a delta p50% of between 30 and 50) | † (activity ≥40% but ≤80%) | – | + (a delta R of between 0 and 30) | COc1cc(C=O)c(OCc2cccnc2-c2ccn(C)n2)cn1 [Compound 130, 2-methoxy-5-((2-(1-methyl-1H-pyrazol-3-yl)pyridin-3-yl)methoxy)isonicotinaldehyde] | ++ (a delta p50% of between 30 and 50) |
| +++ (a delta p50% of 50 or greater) | † (activity ≥40% but ≤80%) | – | + (a delta R of between 0 and 30) | CCn1nccc1-c1ncccc1COc1cnc(OC)cc1C=O [Compound 149, 5-((2-(1-ethyl-1H-pyrazol-5-yl)pyridin-3-yl)methoxy)-2-methoxyisonicotinaldehyde] | +++ (a delta p50% of 50 or greater) |
| +++ (a delta p50% of 50 or greater) | ††† (activity >120% but ≤140%) | +++ (a delta R of 50 or greater) | – | COc1cc(C=O)c(OCc2cccnc2-c2ccnn2C(C)C)cn1 [Compound 150] | +++ (a delta p50% of 50 or greater) |
| ++ (a delta p50% of between 30 and 50) | † (activity ≥40% but ≤80%) | – | + (a delta R of between 0 and 30) | O=Cc1cc(OC(F)F)ncc1OCc1cccn2ccnc12 [Compound 158, 2-(difluoromethoxy)-5-(imidazo[1,2-a]pyridin-8-ylmethoxy)isonicotinaldehyde] | + (a delta p50% of between 0 and 29) |
| +++ (a delta p50% of 50 or greater) | †† (activity >80% but ≤120%) | ++ (a delta R of between 30 and 50) | – | COc1cc(C=O)c(OCc2cccnc2-c2ccccc2)cn1 [Compound 159, 2-methoxy-5-((2-phenylpyridin-3-yl)methoxy) isonicotinaldehyde] | +++ (a delta p50% of 50 or greater) |
| +++ (a delta p50% of 50 or greater) | †† (activity >80% but ≤120%) | + (a delta R of between 0 and 30) | – | COc1cc(C=O)c(OCc2ccncc2-c2ccnn2C(C)C)cn1 [Compound 160, 5-((3-(1-isopropyl-1H-pyrazol-5-yl)pyridin-4-yl)methoxy)-2-methoxyisonicotinaldehyde] | +++ (a delta p50% of 50 or greater) |
| +++ (a delta p50% of 50 or greater) | †† (activity >80% but ≤120%) | +++ (a delta R of 50 or greater) | – | COc1cc(C=O)c(OCc2cccnc2-c2ccccc2C)cn1 [Compound 162, 2-methoxy-5-((2-(o-tolyl)pyridin-3-yl)methoxy)isonicotinaldehyde] | +++ (a delta p50% of 50 or greater) |
| +++ (a delta p50% of 50 or greater) | †† (activity >80% but ≤120%) | ++ (a delta R of between 30 and 50) | – | COc1cc(C=O)c(OCc2cccnc2-c2cccnc2OC)cn1 [Compound 163, 2-methoxy-5-((2′-methoxy-[2,3′-bipyridin]-3-yl)methoxy)isonicotinaldehyde] | +++ (a delta p50% of 50 or greater) |
| ++ (a delta p50% of between 30 and 50) | ††† (activity >120% but ≤140%) | – | ++ (a delta R of between 30 and 50) | COC(=O)c1ccc(COc2cccnc2C=O)cc1 [Compound 164] | ++ (a delta p50% of between 30 and 50) |
| ++ (a delta p50% of between 30 and 50) | ††† (activity >120% but ≤140%) | – | + (a delta R of between 0 and 30) | Cc1ccc(OCc2ccc(C(=O)O)cc2)c(C=O)n1 [Compound 165, 4-(((2-formyl-6-methylpyridin-3-yl)oxy)methyl)benzoic acid] | + (a delta p50% of between 0 and 29) |
| +++ (a delta p50% of 50 or greater) | ††† (activity >120% but ≤140%) | – | – | COc1cncc(OCc2cccnc2-c2ccnn2C(C)C)c1C=O [Compound 188, 3-((2-(1-isopropyl-1H-pyrazol-5-yl)pyridin-3-yl)methoxy)-5-methoxyisonicotinaldehyde] | +++ (a delta p50% of 50 or greater) |
| ++ (a delta p50% of between 30 and 50) | ††† (activity >120% but ≤140%) | – | – | COc1cc(C=O)c(OCc2cccnc2-c2ncnn2C(C)C)cn1 [Compound 189, 5-((2-(2-isopropyl-2H-1,2,4-triazol-3-yl)pyridin-3-yl)methoxy)-2-methoxyisonicotinaldehyde] | +++ (a delta p50% of 50 or greater) |
| +++ (a delta p50% of 50 or greater) | ††† (activity >120% but ≤140%) | – | – | COc1cc(C=O)c(OCc2cccnc2-c2c(C)cnn2C(C)C)cn1 [Compound 190, 5-((2-(1-isopropyl-4-methyl-1H-pyrazol-5-yl)pyridin-3-yl)methoxy)-2-methoxyisonicotinaldehyde] | +++ (a delta p50% of 50 or greater) |
| +++ (a delta p50% of 50 or greater) | †† (activity >80% but ≤120%) | – | + (a delta R of between 0 and 30) | COc1cc(C=O)c(OCc2cccc(C(=O)O)c2)cn1 [Compound 203, 3-(((4-formyl-6-methoxypyridin-3-yl)oxy)methyl)benzoic acid] | – |
